Experimental data taken from the OligoGym collection.
After the bases stand the sugars from the 5' end (letter, count) and the backbone: PS all phosphorothioate, else s phosphorothioate and o phosphodiester by linkage. Methylation of C is not given here. e = 2'-O-(2-methoxyethyl) (MOE); k = constrained ethyl (cEt); d = 2'-deoxy (DNA)

Biological target: SOD1
Details: ASO

“ACGACGCAAACCAGCACCCC (sugars e5 d10 e5, PS)” gave a target mRNA inhibition (HepG2, 4 µM) of 30%.

With “ACTACATCCAAGGGAAT (sugars e2 k2 d9 k2 e2, PS)” the target mRNA inhibition (HepG2, 4 µM) was 48%.

Sequence “ACTACATCCAAGGGAAT (sugars e3 k2 d7 k2 e3, PS)” has a target mRNA inhibition (HepG2, 3 µM) of 7%.

“ACTTTTAAGATTACAGTGTT (sugars e5 d10 e5, PS)” gave a target mRNA inhibition (HepG2, 5 µM) of 24%.

Sequence “AGACTACATCCAAGGGA (sugars e2 k2 d8 k2 e3, PS)” has a target mRNA inhibition (HepG2, 4 µM) of 53%.

In the case of “AGACTACATCCAAGGGA (sugars e2 k2 d9 k2 e2, PS)”, the target mRNA inhibition (HepG2, 4 µM) is reported as 55%.

“AGCACCCCGTCTCCGCGACT (sugars e5 d10 e5, PS)” gave a target mRNA inhibition (HepG2, 4 µM) of 24%.

Sequence “AGCAGGATAACAGATGAGTT (sugars e5 d10 e5, PS)” has a target mRNA inhibition (HepG2, 4 µM) of 70% and a target mRNA inhibition (HepG2, 12 µM) of 89%.

“AGCCTCATAATAAGTGC (sugars e2 k2 d8 k2 e3, PS)” gave a target mRNA inhibition (HepG2, 5 µM) of 16%.

“AGCCTCATAATAAGTGC (sugars e2 k2 d9 k2 e2, PS)” gave a target mRNA inhibition (HepG2, 5 µM) of 11%.

For “AGCCTCATAATAAGTGCCAT (sugars e5 d10 e5, PS)”, the target mRNA inhibition (HepG2, 5 µM) was 6%.

“AGGATAACAGATGAGTT (sugars e2 k2 d8 k2 e3, PS)” showed a target mRNA inhibition (HepG2, 0.1875 µM) of 30%, a target mRNA inhibition (HepG2, 0.75 µM) of 71% and a target mRNA inhibition (HepG2, 3 µM) of 87%. The target mRNA inhibition (HepG2, 4 µM) was 84% and the target mRNA inhibition (HepG2, 12 µM) was 95%.

Work on “AGGCTTGAATGACAAAGAAA (sugars e5 d10 e5, PS)” yielded a target mRNA inhibition (HepG2, 5 µM) of 27%.

With “AGGGTTTTTATTCACAG (sugars e3 k2 d7 k2 e3, PS)” the target mRNA inhibition (HepG2, 3 µM) was 24%.

Work on “AGGTCATTGAAACAGAC (sugars e2 k2 d9 k2 e2, PS)” yielded a target mRNA inhibition (HepG2, 5 µM) of 44%.

“AGTGAGATCACAGAATCTTC (sugars e5 d10 e5, PS)” gave a target mRNA inhibition (HepG2, 5 µM) of 30%.

For “AGTGATCATAAATCAGT (sugars e2 k2 d9 k2 e2, PS)”, the target mRNA inhibition (HepG2, 5 µM) was 32%.

For “AGTGTTTAATGTTTAT (sugars ekddddddddekekee, linkages s1 o1 s8 o3 s2)”, the target mRNA inhibition (A431, 0.12 µM) was 10%, the target mRNA inhibition (A431, 0.6 µM) was 22% and the target mRNA inhibition (A431, 3 µM) was 48%. The target mRNA inhibition (A431, 15 µM) was 77%.

“AGTGTTTAATGTTTATC (sugars e2 k2 d8 e5, linkages s1 o2 s9 o2 s2)” showed a target mRNA inhibition (A431, 0.062 µM) of 16%, a target mRNA inhibition (A431, 0.185 µM) of 43% and a target mRNA inhibition (A431, 0.556 µM) of 65%. For the same sequence, the target mRNA inhibition (A431, 1.667 µM) was 68%, the target mRNA inhibition (A431, 5 µM) was 79% and the target mRNA inhibition (A431, 15 µM) was 83%. It also gave a target mRNA inhibition (SH-SY5Y, 0.062 µM) of 33%, a target mRNA inhibition (SH-SY5Y, 0.185 µM) of 10% and a target mRNA inhibition (SH-SY5Y, 0.556 µM) of 43%. For the same sequence, the target mRNA inhibition (SH-SY5Y, 1.667 µM) was 61%, the target mRNA inhibition (SH-SY5Y, 5 µM) was 81% and the target mRNA inhibition (SH-SY5Y, 15 µM) was 77%.
